Reference: US5688807A, “Method for treating 5HT2B receptor related conditions” (Eli Lilly and Company, priority 1995, dated 1997)
Where two headings read alike, the source gives them in different places.

Columns and labels:
Rat 5-HT2A = Rat 5-HT2A (Rattus norvegicus, UniProt P14842); assay: [125I]DOI radioligand binding, rat 5-HT2A; details: AVG
rat 5-HT2B receptor = rat 5-HT2B receptor (Rattus norvegicus, UniProt P30994); assay: biochemical; type: binding;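 note: displacement of [3H]5-HT from membranes of suspension cells carrying cloned rat 5-HT2B receptor, incubated 15 min at 37 °C or 2 h at 0 °C, filter-bound radioactivity counted by scintillation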
Chain of rat 5-HT2B receptor (P30994 whole entry): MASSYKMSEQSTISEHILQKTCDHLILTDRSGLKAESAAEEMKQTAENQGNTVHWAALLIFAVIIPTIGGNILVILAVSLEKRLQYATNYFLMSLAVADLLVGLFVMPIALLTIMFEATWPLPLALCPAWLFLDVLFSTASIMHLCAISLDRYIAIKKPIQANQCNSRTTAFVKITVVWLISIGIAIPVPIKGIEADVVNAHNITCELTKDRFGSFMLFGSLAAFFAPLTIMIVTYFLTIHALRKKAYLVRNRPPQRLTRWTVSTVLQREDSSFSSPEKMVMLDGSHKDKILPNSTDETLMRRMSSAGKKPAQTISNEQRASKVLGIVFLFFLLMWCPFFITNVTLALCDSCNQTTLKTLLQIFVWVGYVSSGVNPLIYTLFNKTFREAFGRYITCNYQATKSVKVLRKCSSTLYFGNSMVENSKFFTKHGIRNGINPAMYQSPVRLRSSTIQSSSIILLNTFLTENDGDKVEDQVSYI

Human 5-HT2B = target: T1, Human 5-HT2B (Homo sapiens, UniProt P41595); assay: [3H]Serotonin radioligand binding, human 5-HT2B;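 note: competition of tritiated serotonin binding to cell membranes, bound radioactivity on filters counted by liquid scintillation, IC50 from logistic fits converted to Ki with the Cheng-Prusoff equation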
T1 construct: expressed in transfected cells
T1 sequence (P41595 whole entry): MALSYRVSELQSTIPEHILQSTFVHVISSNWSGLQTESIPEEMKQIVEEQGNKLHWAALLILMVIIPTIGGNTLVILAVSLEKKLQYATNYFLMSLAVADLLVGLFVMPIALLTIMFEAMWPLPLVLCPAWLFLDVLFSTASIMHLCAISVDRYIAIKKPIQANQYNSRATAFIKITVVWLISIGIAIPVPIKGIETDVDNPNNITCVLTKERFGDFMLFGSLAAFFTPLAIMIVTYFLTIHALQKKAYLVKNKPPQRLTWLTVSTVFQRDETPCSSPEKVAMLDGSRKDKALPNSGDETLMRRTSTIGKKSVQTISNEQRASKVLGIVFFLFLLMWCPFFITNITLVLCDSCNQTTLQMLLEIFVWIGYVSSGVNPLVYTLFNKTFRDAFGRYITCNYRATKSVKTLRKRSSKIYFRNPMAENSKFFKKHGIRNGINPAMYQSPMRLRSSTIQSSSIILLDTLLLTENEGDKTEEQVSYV

Human 5-HT2A = Human 5-HT2A (Homo sapiens, UniProt P28223); assay: [125I]DOI radioligand binding, human 5-HT2A
Chain of Human 5-HT2A (P28223 whole entry): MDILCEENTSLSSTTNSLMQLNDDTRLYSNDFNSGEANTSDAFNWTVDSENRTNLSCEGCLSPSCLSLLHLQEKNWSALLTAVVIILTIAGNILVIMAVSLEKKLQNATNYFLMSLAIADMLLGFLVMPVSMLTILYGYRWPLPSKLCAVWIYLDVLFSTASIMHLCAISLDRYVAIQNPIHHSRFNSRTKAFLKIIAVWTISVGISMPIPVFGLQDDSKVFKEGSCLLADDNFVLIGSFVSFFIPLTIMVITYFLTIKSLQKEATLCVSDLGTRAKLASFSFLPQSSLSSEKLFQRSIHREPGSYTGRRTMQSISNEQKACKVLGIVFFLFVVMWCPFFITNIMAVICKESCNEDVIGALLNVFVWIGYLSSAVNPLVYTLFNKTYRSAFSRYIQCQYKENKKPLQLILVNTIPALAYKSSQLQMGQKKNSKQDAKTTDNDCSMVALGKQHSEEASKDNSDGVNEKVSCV

distal colon = assay: Functional in vitro assay: antagonism of serotonin contraction of rat distal colon longitudinal muscle; details: vs serotonin
Description: Functional In vitro Assay:
Sprague-Dawley rats (200-250g; Laboratory Supply, Indianapolis, Ind.) were sacrificed by cervical dislocation and 8 cm segment of distal colon was removed and washed in ice cold modified Kreb's solution of the following composition (millimolar): Nacl, 118.2; Kcl, 4.6; Cacl2. H2 O, 1.6; KH2 PO4, 1.2; MgSO4, 1.2; dextrose, 10.0; and NaHCO3, 24.8. The colon was mounted on a glass rod and the longitudinal muscle layer with attached myenteric plexi was removed and mounted in organ baths, containing above described Kreb's solution maintained at 37° C. and equilibrated with 95% O2 and 5% CO2. Tissues were placed under 2 g tension and allowed to stabilize for 1 hour. Isometric contractions were recorded as changes in grams of force using grass FT03 transducers and MI^2 - computerized dynograph system. Cumulative concentration-response curves for serotonin were obtained by a stepwise increase in concentration after washing out the preceding concentration for 10-15 minutes. Each agonist concentration remained in contact with the tissue for 5 minutes. Maximum response to each concentration was determined and digitized. EC50 values were taken as the concentration of agonist that produced half maximal contraction. After control responses were obtained, tissues were incubated with an appropriate concentration of antagonist for 15 minutes. Response to serotonin were then repeated in the presence of an antagonist. Concentration-response utilized only one concentration of antagonist per tissue. Apparent antagonist dissociation constants (KB) were determined for each concentration of antagonist according to the following equation:
KB =[B]/(dose ratio-1), where [B] is the concentration of the antagonist and dose ratio is the ED50 of the agonist in the presence of antagonist divided by the control ED50. The results were expressed as the negative logarithm of the KB (i.e., -log KB) (Br. J. Pharmacol. Methods 4:4165, (1980).
The functional in vitro method described supra. was used to test compounds of this invention. Values are expressed as pKi and pA2 (-log KB). The following table illustrates the results obtained when the compounds were tested using the Radioligand assay supra. (pKi) and the functional in vitro method described supra. (pA2)

[1] = target: 5-HT2B receptor (rat stomach fundus) (Rattus norvegicus, UniProt P30994); details: rat stomach fundus; vs serotonin; ± standard error; read-out: 5-HT2B (Fundus) -log KB (converted);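 note: isometric contraction of isolated male Wistar rat stomach fundus strips, serotonin concentration-response curves after antagonist incubation, KB from dose ratio of agonist potency versus control curve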
Chain of 5-HT2B receptor (rat stomach fundus) (P30994 whole entry): as the sequence (P30994 whole entry) above

[2] = Ki Rat 5-HT2B, [3H]Serotonin, 5-HT2B cells, AVG
[3] = [125I]DOI, AVG, read-out: Ki Human 5-HT2A
[4] = [3H]Serotonin, 5-HT2B cells, AVG, read-out: Ki Rat 5-HT2B
[5] = [3H]Serotonin, 5-HT2B cells, AVG, read-out: Ki Human 5-HT2B

Chain of Rat 5-HT2A (P14842 whole entry): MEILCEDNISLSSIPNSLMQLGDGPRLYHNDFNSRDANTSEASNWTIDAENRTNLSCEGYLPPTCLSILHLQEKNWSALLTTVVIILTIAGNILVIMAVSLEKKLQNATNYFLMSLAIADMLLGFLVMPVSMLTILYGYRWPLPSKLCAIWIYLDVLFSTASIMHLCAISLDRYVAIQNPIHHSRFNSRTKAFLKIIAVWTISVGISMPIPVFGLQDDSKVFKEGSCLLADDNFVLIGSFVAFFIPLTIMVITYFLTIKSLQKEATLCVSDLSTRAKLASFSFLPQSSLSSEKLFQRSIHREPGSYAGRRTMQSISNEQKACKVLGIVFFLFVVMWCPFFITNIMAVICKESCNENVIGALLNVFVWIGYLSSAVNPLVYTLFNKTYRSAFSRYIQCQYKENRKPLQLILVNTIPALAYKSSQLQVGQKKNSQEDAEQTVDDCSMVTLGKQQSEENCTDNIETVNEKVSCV

| Structure (SMILES) | Ki (Rat 5-HT2A) [nM] | Ki (rat 5-HT2B receptor; [2]) [nM] | Ki (Human 5-HT2A; [3]) [nM] | Ki (Human 5-HT2B; [5]) [nM] | Ki (Human 5-HT2A) [nM] | other results |
| --- | --- | --- | --- | --- | --- | --- |
| Cc1ccc2c(CCN)c[nH]c2c1Cl | 20.7 | 7.94 | 27.6 |  |  | Ki (Human 5-HT2B): 11.2 nM |
| Cc1ccc2c3c([nH]c2c1Cl)CNCC3 [drawing 177] | 15.5 |  |  | 2.68 | 20.6 | Ki (rat 5-HT2B receptor; [4]): 2.69 nM |
| Cc1ccc2c3c([nH]c2c1C)CNCC3 [Example 72, 7,8-dimethyl-1,2,3,4-tetrahydro-9H-pyrido[3,4b]-indole] |  |  |  |  |  | pA2 (-log KB) (distal colon): 7.5; pKi (rat 5-HT2B receptor; Radioligand assay, Table III): 7.8 |
| CC(C)n1cc2c3c(cccc31)C1CC(C(=O)NC3CCCCC3O)CN(C)C1C2 (stereo not drawn) [drawing 84] | 8.91 | 10.2 | 74.5 |  |  |  |
| CCCN(CCC)[C@@H]1CCc2cccc(-c3ccon3)c2C1 |  |  |  | 784 | 127 |  |
| CCCN(CCC)C1CCc2cccc(-c3ccno3)c2C1 (single isomer, unassigned) |  |  |  | 215 |  | Ki (rat 5-HT2B receptor; read-out: Ki Rat 5-HT2B, [3H]Serotonin, 5-HT2B cells, AVG): 79.3 nM; Ki (Human 5-HT2A; read-out: Ki Human 5-HT2A, [125I]DOI, AVG): 6160 nM |
| COc1ccc(CC2NCCc3c2[nH]c2c(C)cccc32)cc1OC (stereo not drawn) [drawing 182] |  |  |  | 1.69 | 49.7 |  |
| COc1ccc(CC2NCCc3c2[nH]c2ccc(C)cc32)cc1O (stereo not drawn) |  |  |  | 1.47 | 54.9 |  |
| CCc1ccc2[nH]c3c(c2c1)CCNC3Cc1ccc(OC)c(OC)c1 (stereo not drawn) [drawing 143] |  |  |  | 1.5 | 23.4 | Ki (rat 5-HT2B receptor; [4]): 8.16 nM |
| CN1CC(C(=O)N[C@H]2CC[C@H](O)CC2)CC2c3cccc4[nH]cc(c34)CC21 (stereo partly drawn) | 5.36 | 44.6 | 1.25 |  |  | Ki (Human 5-HT2B): 12.4 nM |
| Cc1ccc2[nH]c3c(c2c1)CCNC3Cc1cccc2ccccc12 (stereo not drawn) |  |  |  | 0.74 | 4.63 | Ki (rat 5-HT2B receptor; [4]): 3.31 nM |
| CCCNC1CCc2cccc(-c3ccno3)c2C1 (stereo not drawn) |  |  |  | 1020 | 6030 |  |
| CC(C)n1cc2c3c(cccc31)C1CC(C(=O)NC3CCCCC3O)CN(C)C1C2 (stereo not drawn) [drawing 85] | 12.4 | 11.4 | 108 |  |  |  |
| CC(C)n1cc2c3c(cccc31)C1CC(C(=O)NC3CCCCC3O)CN(C)C1C2 (stereo not drawn) [drawing 86] | 2.39 | 8.61 | 15.8 |  |  |  |
| CC(C)n1cc2c3c(cccc31)C1CC(C(=O)N[C@H]3CC[C@H](O)CC3)CN(C)C1C2 (stereo partly drawn) | 2.82 | 30.9 | 21.2 |  |  | Ki (Human 5-HT2B): 6.24 nM |
| Clc1ccc2[nH]c3c(c2c1)CCNC3 [6-chloro-1,2,3,4-tetrahydro-9H-pyrido[3,4b]-indole] |  |  |  |  |  | pA2 (-log KB) (distal colon): 7.2 |
| CC(C)n1cc2c3c(cccc31)C1CC(C(=O)N[C@H]3CC[C@@H](O)CC3)CN(C)C1C2 (stereo partly drawn) | 1.57 | 22.3 | 11.3 |  |  | Ki (Human 5-HT2B): 4.3 nM |
| COc1ccc(C(C)C2NCCc3c2[nH]c2ccc(C)cc32)cc1OC (single isomer, unassigned) |  |  |  | 5.55 | 373 | Ki (rat 5-HT2B receptor; [4]): 30.1 nM |
| CN1CC(C(=O)NC2CCCC2O)CC2c3cccc4[nH]cc(c34)CC21 (stereo not drawn) |  |  |  |  |  | Ki (Human 5-HT2B): 7.87 nM |
| Cc1ccc2c(CCN)c[nH]c2c1Br | 14.2 | 11.3 | 33.7 |  |  |  |
| CC(N)Cc1c[nH]c2ccc(O)cc12 (stereo not drawn) |  |  |  |  |  | Ki (Human 5-HT2B): 11.9 nM |
| CCCN(CCC)[C@H]1CCc2cccc(-c3ccon3)c2C1 |  |  |  | 257 | 5690 |  |
| CC(C)n1cc2c3c(cccc31)C1CC(C(=O)NC3CCCCC3)CN(C)C1C2 (stereo not drawn) | 2.05 | 15.1 |  |  |  |  |
| Cc1ccc2[nH]c3c(c2c1)CCNC3C(C)c1cccc2ccccc12 (racemic) [Example 49, (±) 6-methyl-1-(1-naphthalenyl-1-ethyl)-1,2,3,4-tetrahydro-9H-pyrido [3,4-b]indole (Z) 2-butenedioate] |  |  |  |  |  | Kb [1]: ~0.0389 nM; Ki (rat 5-HT2B receptor; Radioligand assay, Table III, read-out: pKi (converted)): 3.98 nM |
| COc1ccc(CC2NCCc3c2[nH]c2c(Cl)c(C)ccc32)cc1OC (stereo not drawn) |  |  |  | 0.84 | 0.93 | Ki (rat 5-HT2B receptor; [4]): 3.19 nM |
